IC50 data for 30 compounds are collected here from patent US11981661B2, “Heterocyclic compounds” (Hoffmann-La Roche Inc., priority 2020, dated 2024).

This assay deals with T1, MAGL (Homo sapiens, UniProt Q99685).
T1 sequence (Q99685 1-303): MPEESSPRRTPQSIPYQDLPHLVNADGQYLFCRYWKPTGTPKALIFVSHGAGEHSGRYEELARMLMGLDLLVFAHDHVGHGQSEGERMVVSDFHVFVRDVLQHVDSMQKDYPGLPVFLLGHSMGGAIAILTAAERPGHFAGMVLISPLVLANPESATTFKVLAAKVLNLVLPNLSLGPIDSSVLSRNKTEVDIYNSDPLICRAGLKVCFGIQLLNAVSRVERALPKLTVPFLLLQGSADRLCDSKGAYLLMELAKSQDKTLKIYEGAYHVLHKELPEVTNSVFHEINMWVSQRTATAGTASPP
The assay is described as follows: 2-AG assay (MAGL inhibitory activity, hydrolysis of 2-arachidonoylglycerol followed by mass spectrometry). Conditions: 50 pM MAGL, 8 μM 2-arachidonoylglycerol, 15 min preincubation, 30 min incubation at RT, concentration range 12.5 μM to 0.8 pM. It is filed as biochemical. The gist of the method:
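Activity derived from the arachidonic acid/d8-arachidonic acid MS intensity ratio after acetonitrile quench. Reaction: 8 μM 2-AG substrate with 50 pM MAGL, 30 min at RT, following 15 min RT compound preincubation; buffer 50 mM TRIS, 1 mM EDTA, 0.01% Tween; final compound range 12.5 μM to 0.8 pM.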

Consider `O=C1N[C@H](CCC(=O)N2CC(c3ccc(C4CC5(CCC5)C4)nc3)C2)CO1` [Example 163, (4R)-4-[3-Oxo-3-[3-(6-spiro[3.3]heptan-2-yl-3-pyridyl)azetidin-1-yl]propyl] oxazolidin-2-one], for which half-maximal inhibition (IC50) required 9 nM.
For `O=C1N[C@H](CCC(=O)N2CC(c3cnc(C4CC5(CCC5)C4)cn3)C2)CO1` [Example 164, (4R)-4-[3-Oxo-3-[3-(5-spiro[3.3]heptan-2-ylpyrazin-2-yl)azetidin-1-yl]propyl] oxazolidin-2-one] the value was 12 nM.
For `CC(C)(C)Cc1nnc(C23CC(C4CN(C(=O)CC[C@@H]5COC(=O)N5)C4)(C2)C3)o1` [Example 165, (4R)-4-[3-[3-[3-[5-(2,2-Dimethyl-propyl)-1,3,4-oxadiazol-2-yl]-1-bicyclo[1.1.1]pentanyl]azetidin-1-yl]-3-oxo-propyl] oxazolidin-2-one] the value was 24 nM; for `O=C1N[C@H](CCC(=O)N2CC(OCc3ccc(S(=O)(=O)C(F)(F)F)cc3)C2)CO1` [Example 166, (4R)-4-[3-Oxo-3-[3-[[4-(trifluoro-methylsulfonyl)phenyl]methoxy]azetidin-1-yl]propyl]oxazolidin-2-one], 48 nM.
For `O=C1N[C@H](CCC(=O)N2CC(OCc3cccc(S(=O)(=O)C(F)(F)F)c3)C2)CO1` [Example 167, (4R)-4-[3-Oxo-3-[3-[[3-(trifluoro-methylsulfonyl)phenyl]methoxy]azetidin-1-yl]propyl]oxazolidin-2-one] the value was 27 nM; for `O=C1N[C@H](CCC(=O)N2CC(c3noc(-c4ccc(C(F)(F)F)nc4)n3)C2)CO1` [Example 168, (4R)-4-[3-Oxo-3-[3-[5-[6-(trifluoromethyl)-3-pyridyl]-1,2,4-oxadiazol-3-yl]azetidin-1-yl]propyl]oxazolidin-2-one], 2020 nM.
In the case of `O=C1N[C@H](CCC(=O)N2CC(c3noc(C45CC(C(F)(F)F)(C4)C5)n3)C2)CO1` [Example 169, (4R)-4-[3-Oxo-3-[3-[5-[3-(trifluoromethyl)-1-bicyclo[1.1.1]pentanyl]-1,2,4-oxadiazol-3-yl]azetidin-1-yl]propyl] oxazolidin-2-one], the IC50 – broadly, the concentration at which inhibition is half-maximal – amounted to 854 nM.
`CC(C)(O)C1CN(c2ccc(C3CN(C(=O)CC[C@@H]4COC(=O)N4)C3)cn2)C1` [Example 170, (4R)-4-[3-[3-[6-[3-(1-Hydroxy-1-methyl-ethyl)azetidin-1-yl]-3-pyridyl]azetidin-1-yl]-3-oxo-propyl]oxazolidin-2-one] displayed an IC50 of 329 nM.
The result for `O=C1N[C@H](CCC(=O)N2CC(c3ccc(C4(CO)CC4)cc3)C2)CO1` [Example 171, (4R)-4-[3-[3-[4-[1-(Hydroxy-methyl)cyclo-propyl]phenyl]azetidin-1-yl]-3-oxo-propyl] oxazolidin-2-one] reads 21 nM; that for `O=C1N[C@H](CCC(=O)N2CC(c3ccc(N4CC5(CCCO5)C4)nc3)C2)CO1` [Example 172, (4R)-4-[3-[3-[6-(5-Oxa-2-azaspiro[3.4]octan-2-yl)-3-pyridyl]azetidin-1-yl]-3-oxo-propyl]oxazolidin-2-one], 827 nM.
The result for `O=C1N[C@H](CCC(=O)N2CC(c3ccc(N4CCC5(C4)CC5(F)F)nc3)C2)CO1` (stereo partly drawn) [Example 173, (4R)-4-[3-[3-[6-(2,2-Difluoro-5-azaspiro[2.4]heptan-5-yl)-3-pyridyl]azetidin-1-yl]-3-oxo-propyl]oxazolidin-2-one] reads 45 nM.
The result for `O=C1N[C@H](CCC(=O)N2CC(c3ccc(Oc4cnc(C(F)(F)F)cn4)cc3)C2)CO1` [Example 174, (4R)-4-[3-Oxo-3-[3-[4-[5-(trifluoromethyl)pyrazin-2-yl]oxyphenyl]azetidin-1-yl]propyl]oxazolidin-2-one] reads 20 nM; that for `O=C1N[C@H](CCC(=O)N2CC(c3ccc(NCC4(C(F)(F)F)CC4)cn3)C2)CO1` [Example 175, (4R)-4-[3-Oxo-3-[3-[5-[[1-(trifluoromethyl)cyclopropyl]methylamino]-2-pyridyl]azetidin-1-yl]propyl]oxazolidin-2-one], 17 nM; that for `O=C1N[C@H](CCC(=O)N2CC(c3cnc(NCC4(C(F)(F)F)CC4)cn3)C2)CO1` [Example 176, (4R)-4-[3-Oxo-3-[3-[5-[[1-(trifluoromethyl)cyclopropyl]methylamino]pyrazin-2-yl]azetidin-1-yl]propyl] oxazolidin-2-one], 12 nM.
Turning to `O=C1N[C@H](CCC(=O)N2CC(c3ccc(-c4nc(C5CC5)n[nH]4)cc3)C2)CO1` [Example 177, (4R)-4-[3-[3-[4-(3-Cyclo-propyl-1H-1,2,4-triazol-5-yl)phenyl]azetidin-1-yl]-3-oxo-propyl]oxazolidin-2-one], the IC50 is 353 nM.
The result for `O=C1N[C@H](CCC(=O)N2CC(c3ccc(-c4nc(C5(C(F)(F)F)CC5)n[nH]4)cc3)C2)CO1` [Example 178, (4R)-4-[3-Oxo-3-[3-[4-[3-[1-(trifluoro-methyl)cyclo-propyl]-1H-1,2,4-triazol-5-yl]phenyl]azetidin-1-yl]propyl]oxazolidin-2-one] reads 181 nM; that for `CS(=O)(=O)c1cccc(CC2CC3(C2)CN(C(=O)CC[C@@H]2COC(=O)N2)C3)c1` [Example 179, (4R)-4-[3-[6-[(3-Methyl-sulfonylphenyl)methyl]-2-azaspiro[3.3]heptan-2-yl]-3-oxo-propyl]oxazolidin-2-one], 46 nM; that for `CS(=O)(=O)c1ccc(CC2CC3(C2)CN(C(=O)CC[C@@H]2COC(=O)N2)C3)cc1` [Example 180, (4R)-4-[3-[6-[(4-Methyl-sulfonylphenyl)methyl]-2-azaspiro[3.3]heptan-2-yl]-3-oxo-propyl]oxazolidin-2-one], 93 nM.
For `O=C1N[C@H](CCC(=O)N2CC3(CC(Cc4ccc(C(F)(F)F)nn4)C3)C2)CO1` [Example 181, (4R)-4-[3-Oxo-3-[6-[[6-(trifluoro-methyl)pyridazin-3-yl]methyl]-2-azaspiro[3.3]heptan-2-yl]propyl] oxazolidin-2-one] the value was 227 nM; for `O=C1N[C@H](CCC(=O)N2CC3(CC(Cc4cnc(C(F)(F)F)nc4)C3)C2)CO1` [Example 182, (4R)-4-[3-Oxo-3-[6-[[2-(trifluoro-methyl)pyrimidin-5-yl]methyl]-2-azaspiro[3.3]heptan-2-yl]propyl] oxazolidin-2-one], 246 nM; for `O=C1N[C@H](CCC(=O)N2CC3(CC(Cc4ncc(C(F)(F)F)cn4)C3)C2)CO1` [Example 183, (4R)-4-[3-Oxo-3-[6-[[5-(trifluoro-methyl)pyrimidin-2-yl]methyl]-2-azaspiro[3.3]heptan-2-yl]propyl] oxazolidin-2-one], 84 nM.
The result for `CS(=O)(=O)c1cc(F)cc(CC2CC3(C2)CN(C(=O)CC[C@@H]2COC(=O)N2)C3)c1` [Example 184, (4R)-4-[3-[6-[(3-Fluoro-5-methylsulfonyl-phenyl)methyl]-2-azaspiro[3.3]heptan-2-yl]-3-oxo-propyl]oxazolidin-2-one] reads 59 nM; that for `O=C1N[C@H](CCC(=O)N2CC3(CC(n4cnc(C5CC5)n4)C3)C2)CO1` [Example 185, (4R)-4-[3-[6-(3-Cyclopropyl-1,2,4-triazol-1-yl)-2-azaspiro [3.3]heptan-2-yl]-3-oxo-propyl] oxazolidin-2-one], 464 nM.
With `O=C1N[C@H](CCC(=O)N2CC3(CC(Cc4cccc(S(=O)(=O)C(F)(F)F)c4)C3)C2)CO1` [Example 186, (4R)-4-[3-Oxo-3-[6-[[3-(trifluoro-methylsulfonyl)phenyl]methyl]-2-azaspiro[3.3]heptan-2-yl]propyl] oxazolidin-2-one], it took 2 nM to reach half-maximal inhibition (IC50).
The result for `O=C1N[C@H](CCC(=O)N2CC3(CN(Cc4ccc(S(=O)(=O)C(F)(F)F)cc4)C3)C2)CO1` [Example 187, (4R)-4-[3-Oxo-3-[6-[[4-(trifluoro-methylsulfonyl)phenyl]methyl]-2,6-diazaspiro [3.3]heptan-2-yl]propyl] oxazolidin-2-one] reads 206 nM.
The result for `O=C1N[C@H](CCC(=O)N2CC3(CCC(Cc4ccc(C(F)(F)F)nc4)CC3)C2)CO1` [Example 188, (4R)-4-[3-Oxo-3-[7-[[6-(trifluoro-methyl)-3-pyridyl]methyl]-2-azaspiro[3.5]nonan-2-yI]propyl] oxazolidin-2-one] reads 25 nM.
For `O=C1N[C@H](CCC(=O)N2CC3(CCC(Cc4ccc(C(F)(F)F)cn4)CC3)C2)CO1` [Example 189, (4R)-4-[3-Oxo-3-[7-[[5-(trifluoro-methyl)-2-pyridyl]methyl]-2-azaspiro[3.5]nonan-2-yl]propyl] oxazolidin-2-one] the value was 16 nM.
`O=C1N[C@H](CCC(=O)N2CC3(CCC(Cc4cnc(C(F)(F)F)cn4)CC3)C2)CO1` [Example 190, (4R)-4-[3-Oxo-3-[7-[[5-(trifluoro-methyl)pyrazin-2-yl]methyl]-2-azaspiro[3.5]nonan-2-yl]propyl] oxazolidin-2-one] showed an IC50 of 140 nM.
The result for `O=C1N[C@H](CCC(=O)N2CC3(CCC(Cc4ccc(OC(F)F)nc4)CC3)C2)CO1` [Example 191, (4R)-4-[3-[7-[[6-(Difluoro-methoxy)-3-pyridyl]methyl]-2-azaspiro[3.5]nonan-2-yl]-3-oxo-propyl] oxazolidin-2-one] reads 37 nM.
For `CS(=O)(=O)c1ccc(CN2CCC3(CC2)CN(C(=O)CC[C@@H]2COC(=O)N2)C3)cc1` [Example 192, (4R)-4-[3-[7-[(4-Methyl-sulfonylphenyl)methyl]-2,7-diazaspiro[3.5]nonan-2-yl]-3-oxo-propyl] oxazolidin-2-one] the value was 1220 nM.
